A word on the IC50: it is the concentration needed to halve the response being measured.

The structures appear in SMILES notation.

Experiment [1] relates to L-type calcium channel (CaV1). Nature of the experiment: HVA calcium channel FLIPR assay, L-type (SH-SY5Y cells). Type of experiment: cell-based, human. The conditions noted are these: 1 µM CVID present, N = 3, mean ± SEM, read-out: IC50 CaV1 (HVA CaVs). The method, then:
(§1) The human embryonic kidney 293 (HEK 293) cell lines (from Emmanuel Bourinet, Montpellier, France) stably expressing CaV3.2 or CaV3.3 were cultured under 5% carbon dioxide at 37 °C in Dulbecco’s Modified Eagle Medium (DMEM) Glutamax (Gibco, Life Technologies, Carlsbad, CA, USA) supplemented with 10% (v/v) fetal bovine serum (FBS), 100 U/mL penicillin, 100 μg/mL streptomycin (Gibco, Life Technologies), and 750 μg/mL geneticin (G418) (Gibco, Life Technologies). The Chinese Hamster Ovary (CHO) cell lines (Emmanuel Bourinet, Montpellier, France) expressing CaV3.1 were cultured under 5% carbon dioxide at 37 °C in Alpha Minimum Essential Media (MEM) Glutamax (Gibco, Life Technologies), supplemented with 10% (v/v) fetal bovine serum (FBS) and 300 μg/mL geneticin (G418) (Gibco, Life Technologies). The human neuroblastoma SH-SY5 Y cells (Victor Diaz, Goettingen, Germany) were cultured under 5% carbon dioxide at 37 °C in RPMI 1640 antibiotic-free medium (Invitrogen, Carlsbad, CA, USA), supplemented with 15% FBS and 2 mM GlutaMAX™ (Invitrogen). D-PBS (Gibco, Life Technologies) was used to wash the cells, and 0.25% Trypsin-EDTA (Gibco, Life Technologies) was used to detach cells from the flask surface. They were split in a ratio of 1:5 (ideally 1000 cells/cm^2) when they reached 70%–80% confluence (every 2–3 days). Transiently transfected CaV3.1HEK293 T cells were used in FLIPR Assays. HEK 293 T cells were cultured under 5% carbon dioxide at 37 °C in DMEM supplemented with 10% (v/v) FBS. D-PBS was used to wash the cells, and 0.25% Trypsin-EDTA was used to detach cells from the flask surface. The cells were split and seeded at 6 million cells per T175 flask, to reach 70%–80% confluence after 24 h. The next day, 12 μg DNA of human CaV3.1 was incubated in 900 μL serum-free DMEM with 36 μL FuGENE HD transfection reagent (Promega Corporation, Madison, WI, US) (1:3 DNA/Fugene ratio) for 20 min, and then the mixture was added into the cell flask slowly, drop by drop. After the transfection, the cells were cultured under 5% carbon dioxide at 37 °C for 24 h and then moved to a 28 °C incubator.
SH-SY5Y cells were seeded into 384-well black wall clear bottom plates at a density of 15,000 cells per well, resulting in 90%–95% confluence after 24 h. […] The fluorescence readings were recorded and converted as described previously, and agonist containing 90 mM KCl + 5 mM CaCl2 was used in the second addition.
Data were plotted and analyzed using GraphPad Prism v7.0 (GraphPad Software Inc., San Diego, CA, USA). […]

The target of experiment [2] is T1, N-type CaV2.2 (Homo sapiens, UniProt Q00975).
T1 construct: endogenous in cells
T1 sequence (Q00975 whole entry): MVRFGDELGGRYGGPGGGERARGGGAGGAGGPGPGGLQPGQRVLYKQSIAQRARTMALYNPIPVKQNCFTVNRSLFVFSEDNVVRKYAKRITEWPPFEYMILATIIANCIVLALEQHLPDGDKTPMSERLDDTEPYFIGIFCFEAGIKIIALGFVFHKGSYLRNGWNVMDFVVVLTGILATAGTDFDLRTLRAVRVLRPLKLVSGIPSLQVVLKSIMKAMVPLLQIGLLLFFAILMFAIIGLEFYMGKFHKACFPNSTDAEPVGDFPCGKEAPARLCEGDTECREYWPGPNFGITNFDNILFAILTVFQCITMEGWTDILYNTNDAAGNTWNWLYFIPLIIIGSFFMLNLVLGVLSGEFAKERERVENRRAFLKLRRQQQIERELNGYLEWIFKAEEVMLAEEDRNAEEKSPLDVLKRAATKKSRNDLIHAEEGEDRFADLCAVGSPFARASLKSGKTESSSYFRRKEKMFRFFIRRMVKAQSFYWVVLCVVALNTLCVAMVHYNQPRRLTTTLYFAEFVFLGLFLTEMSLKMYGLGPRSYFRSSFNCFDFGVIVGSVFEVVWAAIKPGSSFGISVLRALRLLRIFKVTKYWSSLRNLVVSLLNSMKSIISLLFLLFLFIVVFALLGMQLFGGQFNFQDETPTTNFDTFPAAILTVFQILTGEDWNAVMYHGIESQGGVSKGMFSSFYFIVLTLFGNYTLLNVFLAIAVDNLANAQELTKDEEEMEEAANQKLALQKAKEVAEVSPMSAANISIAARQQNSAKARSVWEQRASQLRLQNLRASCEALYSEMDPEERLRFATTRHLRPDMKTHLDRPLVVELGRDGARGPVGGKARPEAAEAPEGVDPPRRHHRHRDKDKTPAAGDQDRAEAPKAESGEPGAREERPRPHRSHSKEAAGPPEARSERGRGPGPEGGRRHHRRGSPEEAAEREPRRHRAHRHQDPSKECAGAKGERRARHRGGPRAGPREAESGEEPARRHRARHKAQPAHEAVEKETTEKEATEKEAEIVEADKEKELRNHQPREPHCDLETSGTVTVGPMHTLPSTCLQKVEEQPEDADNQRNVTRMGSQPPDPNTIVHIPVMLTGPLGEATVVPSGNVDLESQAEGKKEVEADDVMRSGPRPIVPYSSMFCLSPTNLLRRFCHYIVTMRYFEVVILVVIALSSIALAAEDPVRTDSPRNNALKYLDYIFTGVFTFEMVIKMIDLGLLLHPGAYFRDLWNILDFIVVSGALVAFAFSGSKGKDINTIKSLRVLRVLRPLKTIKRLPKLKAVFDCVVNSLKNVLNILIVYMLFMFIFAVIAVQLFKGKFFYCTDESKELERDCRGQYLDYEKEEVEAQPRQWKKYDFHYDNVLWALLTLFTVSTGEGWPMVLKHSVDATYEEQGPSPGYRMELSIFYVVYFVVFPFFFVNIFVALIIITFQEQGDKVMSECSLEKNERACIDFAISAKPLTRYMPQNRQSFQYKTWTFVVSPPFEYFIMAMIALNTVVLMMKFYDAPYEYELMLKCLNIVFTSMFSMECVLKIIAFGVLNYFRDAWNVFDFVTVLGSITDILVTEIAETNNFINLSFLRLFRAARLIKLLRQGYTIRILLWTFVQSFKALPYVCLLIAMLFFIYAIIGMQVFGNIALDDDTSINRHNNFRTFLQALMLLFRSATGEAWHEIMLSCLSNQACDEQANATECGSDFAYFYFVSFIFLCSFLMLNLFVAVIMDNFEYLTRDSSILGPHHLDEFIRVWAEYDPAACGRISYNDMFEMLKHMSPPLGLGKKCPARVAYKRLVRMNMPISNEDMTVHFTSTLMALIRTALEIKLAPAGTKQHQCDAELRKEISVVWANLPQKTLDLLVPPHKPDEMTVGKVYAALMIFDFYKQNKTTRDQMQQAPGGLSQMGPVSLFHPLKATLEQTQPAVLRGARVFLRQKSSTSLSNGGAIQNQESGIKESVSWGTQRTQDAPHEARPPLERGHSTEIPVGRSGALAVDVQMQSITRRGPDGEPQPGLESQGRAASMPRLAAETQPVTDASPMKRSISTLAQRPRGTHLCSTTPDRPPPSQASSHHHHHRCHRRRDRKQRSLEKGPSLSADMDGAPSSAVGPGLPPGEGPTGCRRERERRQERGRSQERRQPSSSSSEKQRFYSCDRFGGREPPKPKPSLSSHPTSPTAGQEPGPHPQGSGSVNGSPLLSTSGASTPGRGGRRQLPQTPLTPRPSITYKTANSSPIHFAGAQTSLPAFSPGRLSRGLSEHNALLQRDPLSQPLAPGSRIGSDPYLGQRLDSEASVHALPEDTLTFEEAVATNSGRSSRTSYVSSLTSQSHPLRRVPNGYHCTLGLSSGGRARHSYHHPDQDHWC
T1 sequence (P54284 whole entry partner): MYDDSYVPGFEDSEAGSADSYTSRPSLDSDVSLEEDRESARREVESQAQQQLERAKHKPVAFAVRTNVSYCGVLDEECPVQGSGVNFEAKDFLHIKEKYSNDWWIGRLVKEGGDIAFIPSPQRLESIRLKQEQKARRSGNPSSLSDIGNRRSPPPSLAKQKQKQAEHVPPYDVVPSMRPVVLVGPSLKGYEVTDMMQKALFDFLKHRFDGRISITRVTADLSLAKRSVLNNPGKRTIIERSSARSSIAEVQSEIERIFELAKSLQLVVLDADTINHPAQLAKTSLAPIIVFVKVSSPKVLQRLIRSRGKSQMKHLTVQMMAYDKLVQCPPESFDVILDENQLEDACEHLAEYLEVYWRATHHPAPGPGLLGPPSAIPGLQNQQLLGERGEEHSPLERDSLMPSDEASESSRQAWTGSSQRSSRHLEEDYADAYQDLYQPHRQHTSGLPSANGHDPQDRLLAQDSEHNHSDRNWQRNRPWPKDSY
T1 sequence (P54289 25-946 partner limits assumed): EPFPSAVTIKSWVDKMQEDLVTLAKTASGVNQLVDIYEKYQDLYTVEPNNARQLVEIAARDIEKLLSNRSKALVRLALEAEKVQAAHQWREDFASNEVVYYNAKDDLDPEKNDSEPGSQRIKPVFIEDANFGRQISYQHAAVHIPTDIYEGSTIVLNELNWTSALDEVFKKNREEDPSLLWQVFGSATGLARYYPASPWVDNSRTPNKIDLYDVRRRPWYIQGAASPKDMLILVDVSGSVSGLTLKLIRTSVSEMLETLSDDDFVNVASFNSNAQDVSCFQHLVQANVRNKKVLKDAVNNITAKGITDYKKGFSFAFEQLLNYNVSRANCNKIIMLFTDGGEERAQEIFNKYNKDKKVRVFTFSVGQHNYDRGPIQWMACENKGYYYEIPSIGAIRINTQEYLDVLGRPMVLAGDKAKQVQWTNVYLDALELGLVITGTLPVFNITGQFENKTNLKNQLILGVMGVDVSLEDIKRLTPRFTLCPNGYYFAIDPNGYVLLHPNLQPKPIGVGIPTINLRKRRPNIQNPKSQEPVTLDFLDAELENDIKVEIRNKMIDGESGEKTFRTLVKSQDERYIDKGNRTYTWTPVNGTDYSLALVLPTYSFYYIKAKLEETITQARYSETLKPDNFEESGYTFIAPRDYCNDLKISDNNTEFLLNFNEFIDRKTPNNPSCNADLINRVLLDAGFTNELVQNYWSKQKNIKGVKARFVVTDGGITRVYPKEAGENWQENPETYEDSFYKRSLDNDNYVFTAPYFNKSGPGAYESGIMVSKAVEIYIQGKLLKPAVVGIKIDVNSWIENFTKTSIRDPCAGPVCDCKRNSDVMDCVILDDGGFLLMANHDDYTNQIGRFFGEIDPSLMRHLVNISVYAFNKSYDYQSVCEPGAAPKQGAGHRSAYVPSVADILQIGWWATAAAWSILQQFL
T1 sequence (P54289 947-1103 partner limits assumed): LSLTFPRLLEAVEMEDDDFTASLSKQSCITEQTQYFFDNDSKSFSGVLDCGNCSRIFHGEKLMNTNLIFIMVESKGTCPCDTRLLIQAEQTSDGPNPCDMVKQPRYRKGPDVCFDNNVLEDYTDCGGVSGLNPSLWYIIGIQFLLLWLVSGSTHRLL
Put plainly: HVA calcium channel FLIPR assay, N-type (SH-SY5Y cells). Type of experiment: cell-based. The conditions noted are these: SH-SY5Y, 10 µM nifedipine present, N = 3, mean ± SEM, read-out: IC50 CaV2.2 (HVA CaVs). The method, then:
as §1
SH-SY5Y cells were seeded into 384-well black wall clear bottom plates at a density of 15,000 cells per well, resulting in 90%–95% confluence after 24 h. The media were then removed from the wells and replaced with 20 μL of 10% calcium 4 dye (Molecular Devices) in physiological salt solution (PSS) (containing 5.9 mM KCl, 1.4 mM MgCl2, 10 mM HEPES, 1.2 mM NaH2 PO4, 5 mM NaHCO3, 140 mM NaCl, 11.5 mM glucose, and 1.8 mM CaCl2, pH 7.4) with 0.1% BSA. […] Positive control on the first reagent plate contained 15 μL of PSS (0.1% BSA), whereas PSS (0.1% BSA) containing 1 µM CVID and 10 µM nifedipine (final concentration) was used as a negative control. The fluorescence readings were recorded and converted as described previously, and agonist containing 90 mM KCl + 5 mM CaCl2 was used in the second addition.
Data were plotted and analyzed using GraphPad Prism v7.0 (GraphPad Software Inc., San Diego, CA, USA). A four-parameter logistic Hill equation with variable Hill coefficients was fitted to the data for concentration-response curves. Data are means ± SEM of n independent experiments. Statistical analysis was performed with a paired Student’s t-test with statistical significance at p < 0.05.

`COC(=O)[C@H](Cc1c[nH]c2ccccc12)NC(=O)C(C)(c1c[nH]c2ccccc12)c1c[nH]c2ccccc12` [Compound 3, Methyl (2,2-di(1H-indol-3-yl)propanoyl)-L-tryptophanate]: the IC50 in experiment [1] stood at 39.8 ± 3.98 µM; in experiment [2] it was 31.3 ± 3.4 µM.

Values taken from publication PMC6315694, “Synthesis of Pseudellone Analogs and Characterization as Novel T-type Calcium Channel Blockers” (Marine Drugs, 2018).
